Source: PubChem BioAssay AID1845217 (Molecular Pharmacology Branch, DTP, NCI, 2023)
pIC50: −log10 of the molar value.

System: VA-ES-BJ tumor spheroid viability
Test: Anticancer human tumor VA-ES-BJ cell line growth inhibition;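 also: spheroids exposed to compounds for seven days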;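 as to viability, T/C: percent of DMSO vehicle control viability so 100% = untreated growth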
Details: spheroids with HUVEC and MSC; for pIC50: curve of first compound; for viability, T/C: stronger effect = lower value
Source text: Multicellular complex tumor spheroid response to DNA repair inhibitors in combination with DNA-damaging drugs
This study explores the anticancer activities of DNA-damaging drugs and inhibitors of DNA damage repair, both as single agents and in combinations. Complex tumor spheroids comprised of malignant cells, endothelial cells and mesenchymal stem cells served as an in vitro model for human solid tumors. This model system incorporates physiologically relevant features and patient-derived or established malignant cell lines with clinically relevant genetic alterations from many tumor types. Twenty-six patient-derived or established malignant cell lines were evaluated representing sarcoma, melanoma, small cell lung cancer (SCLC), non-small cell lung cancer (NSCLC), as well as bladder, ovarian and pancreatic cancers. The concentration ranges selected for each drug and investigational agent were based upon clinically achievable concentrations if the clinical Cmax of the agent was known.
Compounds. The drugs and compounds olaparib (NSC753686), talazoparib (NSC767125), berzosertib (NSC777718), elimusertib (NSC800525), nedisertib (NSC802822), VX-984 (NSC792969), AZD-1390 (NSC803789), temozolomide (NSC362856), topotecan (NSC609699), trabectedin (NSC813783), staurosporine (NSC755774), and gemcitabine (NSC613327) were obtained from the National Cancer Institute (NCI) Developmental Therapeutics Program Chemical Repository. The FDA-approved anticancer drug set is available from the Developmental Therapeutics Program at https://dtp.cancer.gov/organization/dscb/obtaining/available_plates.htm. […] The stock solutions were prepared in dimethyl sulfoxide (DMSO, Sigma-Aldrich, St. Louis, MO, cat. D2650) at 400-fold the tested concentration and stored at -70 degrees C. Prior to their use, the stock solutions were diluted in fresh medium and the final DMSO concentration in the assay was 0.25% (v/v). All drugs and investigational agents were tested over a range starting from a high concentration at or near the clinical Cmax and decreasing in half-log increments. If the clinical Cmax for an agent had not been determined, the highest concentration tested was 10 microM.
Cell Lines. The patient-derived cancer cell (PDC) lines: 156681-154-R-J1-PDC, 283228-195-R-J1-PDC, 287954-098-R-J1-PDC, 292921-168-R-J2-PDC, 349418-098-R-PDC, 425362-245-T-J1-PDC, 556581-035-R-J1-PDC, and BL0293-F563-PDC were received from the NCI Patient-Derived Models Repository (PDMR, https://pdmr.cancer.gov). The established cell lines HS-SY-2 (RRID:CVCL_8719), MPNST, and SYO-1 (RRID:CVCL_7146) were obtained from the Sloan Kettering Institute. The alveolar soft parts sarcoma cell line ASPS-1 (RRID:CVCL_S738) was established at the NCI and grown from internal seed stocks. The following established cell lines were purchased from the American Type Culture Collection (ATCC, Manassas, VA): G-401 (ATCC, cat. CRL-1441, RRID:CVCL_0270), SW982 (ATCC, cat. HTB-93, RRID:CVCL_1734), VA-ES-BJ (ATCC, cat. CRL-2138, RRID:CVCL_1785), NCI-H719 (ATCC, cat. CRL-5837, RRID:CVCL_1582), NCI-H196 (ATCC, cat. CRL-5823, RRID:CVCL_1509), NCI-H841 (ATCC, cat. CRL-5845, RRID:CVCL_1595), NCI-H1618 (ATCC, cat. CRL-5879, RRID:CVCL_1480), NCI-H1876 (ATCC, cat. CRL-5902, RRID:CVCL_1503), DMS 114 (ATCC, cat. CRL-2066; RRID:CVCL_1174), NCI-H211 (ATCC, cat. CRL-5824; RRID:CVCL_1529), and SW 1271 (ATCC, cat. CRL-2177, RRID:CVCL_1716). The small cell lung cancer cell line COR-L88 was purchased from Sigma-Aldrich (cat. 92031917-1VL, RRID:CVCL_1141). The non-small cell lung cancer cell lines NCI-H226 (RRID:CVCL_1544) and NCI-H322M (RRID:CVCL_1557) were established at the NCI and grown from internal seed stocks. Pooled donor human umbilical vein endothelial cells (HUVEC, Lonza, cat. CC-2519) and human mesenchymal stem cells (hMSC, Lonza, cat. PT-2501) were purchased from Lonza (Walkersville, MD).
Cell Culture. All cells were maintained in an incubator at 37 degrees C and 5% CO2 with 95% humidity. […]

COc1cc(C)[nH]c(=O)c1CN1CCc2c(Cl)cc(C(OC)C3COC3)c(Cl)c2C1=O (stereo not given) + CC[C@@]1(O)C(=O)OCc2c1cc1n(c2=O)Cc2cc3c(CN(C)C)c(O)ccc3nc2-1
pIC50 (second compound 0.003 µM): < 5.00
pIC50 (second compound 0.00949 µM): 5.29
pIC50 (second compound 0.03 µM): > 7.50
pIC50 (second compound 0.0949 µM): > 7.50
pIC50 (second compound 0.3 µM): > 7.50
viability, T/C (second compound 0.003 µM, first compound 0.0316 µM): 99.6%
viability, T/C (second compound 0.003 µM, first compound 0.1 µM): 88.8%
viability, T/C (second compound 0.003 µM, first compound 0.316 µM): 70.9%
viability, T/C (second compound 0.003 µM, first compound 1 µM): 64.2%
viability, T/C (second compound 0.003 µM, first compound 3.16 µM): 54.9%
viability, T/C (second compound 0.003 µM, first compound 10 µM): 52.5%
viability, T/C (second compound 0.00949 µM, first compound 0.0316 µM): 93.2%
viability, T/C (second compound 0.00949 µM, first compound 0.1 µM): 88.8%
viability, T/C (second compound 0.00949 µM, first compound 0.316 µM): 74.5%
viability, T/C (second compound 0.00949 µM, first compound 1 µM): 65.5%
viability, T/C (second compound 0.00949 µM, first compound 3.16 µM): 53%
viability, T/C (second compound 0.00949 µM, first compound 10 µM): 45.4%
viability, T/C (second compound 0.03 µM, first compound 0.0316 µM): 50.1%
viability, T/C (second compound 0.03 µM, first compound 0.1 µM): 47.5%
viability, T/C (second compound 0.03 µM, first compound 0.316 µM): 47.3%
viability, T/C (second compound 0.03 µM, first compound 1 µM): 46.9%
viability, T/C (second compound 0.03 µM, first compound 3.16 µM): 42.3%
viability, T/C (second compound 0.03 µM, first compound 10 µM): 38.4%
viability, T/C (second compound 0.0949 µM, first compound 0.0316 µM): 8.85%
viability, T/C (second compound 0.0949 µM, first compound 0.1 µM): 9.47%
viability, T/C (second compound 0.0949 µM, first compound 0.316 µM): 8.43%
viability, T/C (second compound 0.0949 µM, first compound 1 µM): 8.57%
viability, T/C (second compound 0.0949 µM, first compound 3.16 µM): 8.44%
viability, T/C (second compound 0.0949 µM, first compound 10 µM): 9.48%
viability, T/C (second compound 0.3 µM, first compound 0.0316 µM): 6.48%
viability, T/C (second compound 0.3 µM, first compound 0.1 µM): 6.48%
viability, T/C (second compound 0.3 µM, first compound 0.316 µM): 6.57%
viability, T/C (second compound 0.3 µM, first compound 1 µM): 6.59%
viability, T/C (second compound 0.3 µM, first compound 3.16 µM): 5.96%
viability, T/C (second compound 0.3 µM, first compound 10 µM): 6.06%
